We go through 1 compound from paper PMC11481179, “Development and Application of Reversible and Irreversible Covalent Probes for Human and Mouse Cathepsin‐K Activity Detection, Revealing Nuclear Activity” (Advanced Science, 2024).

The structures appear in SMILES notation.

Assay in all cases: Recombinant cathepsin inhibition, residual activity labeled by pan cathepsin probe GB123, in-gel fluorescence
Format in all cases: biochemical

One test deals with CTSB (Homo sapiens, UniProt P07858). The settings on record: even at 10 µM. On the procedure: (§1) Figure 1 In vitro evaluation of CTSK targeted compounds. a) Labeling of recombinant cathepsins by ABPs. Recombinant cathepsins were treated with increasing concentrations of ABPs for 1 h. Samples were separated by SDS‐PAGE and scanned for fluorescence by a Typhoon scanner at 635/670 nm. All probes show dose‐dependent binding to the CTSK, and have lower affinity to CTSS except GD36, b) CTSK [0.5–280 ng] was labeled with the indicated ABPs [5 µM]. Incubations were performed for 1 h at 37 °C, at pH 5.5. Samples were analyzed as described in (a). c) Recombinant cathepsins B, K, L, and S [0.5 µM] were first treated with the indicated concentrations of the inhibitor GD30 or vehicle for 1 h followed by incubation with a pan cathepsin probe GB123 [1 µM] for 1 h. Samples were analyzed as described in (a). d) Quantitative analysis of CTSK inhibition by GD30 presented in (d), data represent mean values ± standard error, n = 3. e) IC50 plot of GD30 inhibition of CTSK activity.
(§2) To further evaluate the probes for their selectivity, we applied a potent and selective covalent inhibitor, Compound 6 (GD30); the inhibitor was generated as a precursor of GD32 and GD36. GD30 was evaluated for its ability to block cathepsin activities by preincubating it with each recombinant enzyme before labeling it by a pan cathepsin ABP, GB123. […]
(§3) Recombinant cathepsin inhibition: Recombinant human CTSL, CTSB, CTSK, and CTSS (0.5 µM) were pretreated with different concentrations of inhibitors (GD30, ODN) for 1 h in reaction buffer (50 mM acetate, 4 mM DTT and 5 mM MgCl2, pH 5.5) at 37 °C. GB123, 1 µM, was added, and incubated with samples for 1 h at 37 °C. The reaction was stopped by the addition of sample buffer 4x (40% glycerol, 0.2 M Tris/HCl pH 6.8, 20% beta-mercaptoethanol, 12% SDS, and 0.4 mg/ml bromophenol blue). Samples were then boiled at 95 °C for 2 mins, separated on a 12.5% SDS gel, and scanned for fluorescence by a Typhoon scanner FLA 9500 at excitation/emission wavelengths of 635/670 nm.
(§4) Recombinant cathepsin labeling: Recombinant human CTSL, CTSB, CTSK, and CTSS (0.5 µM) were pretreated with different concentrations of probes (GD32, GD36, GD37, or GD42)

The target in the next test is T1, CTSK (Homo sapiens, UniProt P43235).
T1 sequence (P43235 115-329): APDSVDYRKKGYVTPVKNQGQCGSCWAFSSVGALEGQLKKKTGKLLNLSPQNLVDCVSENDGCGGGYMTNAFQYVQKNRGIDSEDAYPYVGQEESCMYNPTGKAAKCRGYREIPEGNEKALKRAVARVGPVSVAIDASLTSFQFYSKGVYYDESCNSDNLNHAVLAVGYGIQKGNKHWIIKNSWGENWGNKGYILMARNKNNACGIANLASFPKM
As to conditions: CTSK 0.5 µM, 1 h preincubation, then GB123 1 µM 1 h, pH 5.5. On the procedure:
as §1, §2, §3, §4

A further test deals with CTSS (Homo sapiens, UniProt P25774). The settings on record: even at 10 µM. On the procedure: as §1, §2, §3, §4
Chain of CTSS (P25774 115-331): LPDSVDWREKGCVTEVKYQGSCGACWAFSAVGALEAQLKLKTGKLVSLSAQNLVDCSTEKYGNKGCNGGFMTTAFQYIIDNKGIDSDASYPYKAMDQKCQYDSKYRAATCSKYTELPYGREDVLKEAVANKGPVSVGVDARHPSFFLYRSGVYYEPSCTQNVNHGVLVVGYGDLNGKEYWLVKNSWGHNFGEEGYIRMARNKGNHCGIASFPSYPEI

Broadly, the IC50 is the midpoint of a concentration-inhibition curve. Turning to `C#CCNC(=O)[C@H](CC(C)C)N[C@@H](c1ccc(-c2ccc(S(=O)(=O)CCNC(=O)OC(C)(C)C)cc2)cc1)C(F)(F)F` [GD30], the “inhibition of recombinant cathepsin” value on CTSB and at CTSS was “not inhibiting” in each case. On CTSK, the IC50 was 561 nM.
